Patent EP0503044B1, “PEPTIDE COMPOUNDS OF LAEVOROTATORY AMINO ACIDS AND RING MOLECULES, AND THERAPEUTICAL APPLICATIONS THEREOF” (POLIFARMA S.p.A., priority 1990, dated 1992)
Square brackets hold non-standard residues; d marks the D form. Peptide text beside a SMILES is read from it. * marks the point of attachment. Trp(1-Me) = Cn1cc(C[C@H](N)C(=O)O)c2ccccc21; Hyp = O=C(O)[CH]1C[CH](O)CN1; Phg = N[CH](C(=O)O)c1ccccc1; pGlu = O=C1CC[CH](C(=O)O)N1; Pip = O=C(O)[C@@H]1CCCCN1; ΔPro = O=C(O)[CH]1C=CCN1; Cbz = O=C(OCc1ccccc1)*; Aze = O=C(O)[CH]1CCN1; Boc = CC(C)(C)OC(=O)*

How the values were obtained:
[1] = Hot Plate test (analgesic activity); type: in vivo
Text: (§1) In the following examples will first of all be given the data necessary for synthesis of the compounds according to the present invention. There will then be given data regarding their pharmacological activity, using methods widely known to be valid. In particular, for the pressure tests, spontaneously hyper-tensive rats were used (SHR from the company Charles River), operated in such a way as to enable pressure to be read even when the animals were awake and free to move. In order to evaluate the analgesic activity, the Hot Plate and Writhing Tests were used. For the anti-inflammatory effect the test of carraginine edema was used. Finally, for immuno-modulating activity the evaluation of the stimulation of growth of human lymphocites in culture was resorted to, after the addition of specific antigens. The results obtained for each synthesized compound are given at the end of each example.

[2] = system: spontaneously hyper-tensive rats (SHR from the company Charles River); assay: Pressure test in awake spontaneously hypertensive rats (anti-hypertensive activity); type: in vivo
Text: as §1, with “antigens.” for “antigens. The results obtained for each synthesized compound are given at the end of each example.”

[3] = system: human lymphocites in culture; assay: Stimulation of growth of human lymphocytes in culture after addition of specific antigens (immuno-modulating activity); type: cell-based
Text: as §1

carraginine edema = assay: Carrageenin edema test (anti-inflammatory effect); type: in vivo; settings: dose not stated
Text: as §1, with “antigens.” for “antigens. The results obtained for each synthesized compound are given at the end of each example.”

[4] = Analgesic activity, test not given (Hot Plate and Writhing Tests used); type: in vivo; settings: test and dose not stated
Text: as §1, with “antigens.” for “antigens. The results obtained for each synthesized compound are given at the end of each example.”

[5] = Writhing test (analgesic activity); type: in vivo; settings: dose not stated
Text: as §1

Compound | immune response [3] | anti-inflammatory effect (carraginine edema) | anti-hypertensive effect ([2]; dose not stated) | other results
COC(=O)[C@@H](NC(=O)[C@H](C)NC(=O)[C@@H]1CCCN1C(=O)OCc1ccccc1)c1ccccc1 [compound 5, Z-(L)-Pro(L)-Ala-(L)-PhgOMe] (Cbz-Pro-Ala-[Phg]-OMe) | – | – | – | analgesic effect using the Hot Plate test ([1]; dose not stated): moderate; anti-hypertensive effect ([2]; 8 mg/Kg i.p.): bland
COC(=O)[C@H](Cc1cn(C)c2ccccc12)NC(=O)[C@H](C)NC(=O)[C@@H]1CCCN1C(=O)OCc1ccccc1 [compound 7, Z-(L)-Pro-(L)-Ala-(1)-Me-(L)-TrpOMe] (Cbz-Pro-Ala-[Trp(1-Me)]-OMe) | – | – | – | anti-hypertensive effect ([2]; 2 mg/Kg i.v.): good; reduction in pressure ([2]; 2 mg/Kg i.v.): 10%
COC(=O)[C@H](Cc1c[nH]c2ccccc12)NC(=O)[C@H](CC(C)C)NC(=O)c1ccco1 [compound 8, 2-Fur-(L)-Leu-(L)-TrpOMe] | strongly stimulated even with small doses of peptide | slight | – | anti-hypertensive effect ([2]; 4 mg/Kg i.v.): slight
COC(=O)[C@H](Cc1c[nH]c2ccccc12)NC(=O)[C@H](CC(C)C)NC(=O)c1ccc[nH]1 [compound 9, 2-Pyrrolyl-(L)-Leu-(L)-TrpOMe] | – | bland reduction | slight | –
COC(=O)C(Cc1c[nH]c2ccccc12)NC(=O)C(CC(C)C)NC(=O)C1CCCN1C.Cl (stereo not shown) [compound 10, N-Me-(L)-Pro-(L)-Leu-(L)-TrpOMe.HCl] | slightly increased | – | – | analgesic effect [4]: low; anti-hypertensive effect ([2]; 2 mg/Kg i.v.): excellent; reduction in pressure ([2]; 2 mg/Kg i.v.): 15-20%
COC(=O)C(Cc1c[nH]c2ccccc12)NC(=O)C(CC(C)C)NC(=O)C1C=CCN1C(=O)OC(C)(C)C (stereo not drawn) [compound 13, Boc-\/^3,4-(L)-Pro-(L)-Leu-(L)-TrpOMe] (Boc-[ΔPro]-Leu-Trp-OMe; configuration not given here) | slightly increases | – | slightly anti-hypertensive | –
COC(=O)[C@H](Cc1c[nH]c2ccccc12)NC(=O)[C@H](CC(C)C)NC(=O)[C@@H]1CCCCN1C(=O)OCc1ccccc1 [compound 15, Z-(L)-Pip-(L)-Leu-(L)-TrpOMe] (Cbz-[Pip]-Leu-Trp-OMe) | slight increase | consistent | – | anti-hypertensive effect ([2]; 2 mg/Kg i.v.): good; reduction in pressure ([2]; 2 mg/Kg i.v.): up to 30%
COC(=O)C(Cc1c[nH]c2ccccc12)NC(=O)C(CC(C)C)NC(=O)C1CC(O)CN1C(=O)OCc1ccccc1 (stereo not drawn) [compound 16, Z-(L)-Hyp-(L)-Leu-(L)-TrpOMe] (Cbz-[Hyp]-Leu-Trp-OMe; configuration not given here) | – | – | bland | analgesic effect [4]: modest
COC(=O)C(Cc1c[nH]c2ccccc12)NC(=O)C(CC(C)C)NC(=O)C1CCN1C(=O)OCc1ccccc1 [compound 17, z-(S)-Aze-(L)-Leu-(L)-TrpOMe] (Cbz-[Aze]-Leu-Trp-OMe; configuration not given here) | – | bland | slight | –
COC(=O)C(NC(=O)CNC(=O)C1CCC(=O)N1)c1ccccc1 (stereo not drawn) [compound 22, (L)-Pyr-Gly-(L)-PhgOMe] ([pGlu]-Gly-[Phg]-OMe; configuration not given here) | increase | very good | – | reduction of edema (carraginine edema): 70%; anti-hypertensive effect ([2]; 4 mg/Kg i.p.): excellent; pressure values reduced ([2]; 4 mg/Kg i.p.): 20%
(L)-Pyr-(L)-Leu-(S)-CytOMe [compound 25] | – | – | bland | analgesic effect [4]: weak
(L)-Pyr-Gly-(L)-CypOMe [compound 24] | – | moderate | bland | –
(L)-Pyr-Gly-(L)-Pme [compound 23] | good | – | – | analgesic effect [4]: excellent; reduction of contorsions during the Writhing test [5]: 80%; anti-hypertensive effect ([2]; 8 mg/Kg i.p.): good
(S)-Tfc-(L)-Leu-(L)-TrpOMe [compound 18] | moderate | – | bland | –
Boc-(L)-Mep-(L)-Leu-(L)-TrpOMe [compound 12] | – | reduction of the inflammatory response | bland | –
Z-(L)-Pro-(L)-Ala-(L)-CypOMe [compound 11] | – | moderate | slight | –
Z-(L)-Pro-(L)-Ala-(L)-OmtOMe [compound 4] | slightly increased | – | – | anti-hypertensive effect ([2]; 8 mg/Kg i.v.): bland
Z-(L)-Pro-(L)-Ala-(L)-Pme [compound 6] | more consistent | rather weak | – | analgesic effect [4]: good; reduction of contorsions during the Writhing test [5]: 70%; extension of time in the Hot Plate test ([1]; dose not stated): 25%; anti-hypertensive effect ([2]; 2 mg/Kg i.v.): good; pressure reduced ([2]; 2 mg/Kg i.v., after one hour): approximately 25%
Z-(L)-Pro-(L)-Ala-(S)-CytOEt [compound 1] | – | – | – | response of lymphocytes stimulated by phytohemoagglutinine (PHA) ([3]; PHA stimulation): increases; pain killing effect under the Hot Plate test ([1]; 4 mg/Kg i.p.): slight; anti-hypertensive effect ([2]; 4 mg/Kg i.p.): good; duration of the anti-hypertensive effect ([2]; 4 mg/Kg i.p.): maintained for a number of hours; pressure values reduced ([2]; 4 mg/Kg i.p.): 15-20%
Z-(L)-Pro-(L)-Ala-CytH [compound 3] | – | – | – | anti-hypertensive effect ([2]; 8 mg/Kg i.p.): bland
Z-(L)-Pro-(L)-Ala-TrpH [compound 2] | increased, but to a lesser extent than in the previous compound | – | comparable to that of compound 1 | –
Z-(L)-Pyr-(L)-Leu-(L)-TrpOMe [compound 19] | – | fair | slight | –
Z-(L)-Pyr-(L)-Leu-(S)-CypOMe [compound 21] | good | – | slight | –
Z-(L)-Pyr-(L)-Leu-(S)-CytOMe [compound 20] | – | fair | bland | –
Z-(S)-Dhi-(L)-Leu-(L)-TrpOMe [compound 14] | – | – | bland reduction | analgesic effect [4]: moderate
